Experimental data: PubChem BioAssay (NCI)
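Growth conditions: 96-well plates. Treatment: test compound, 48 hours, 5 concentrations. Analysis: linear interpolation between bracketing concentrations; unreached endpoints set to highest concentration. TGI marks complete inhibition of growth.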

Tests used:
Experiment in all cases: inhibition of tumour cell growth, NCI panel, 48 h
[1] = tested on: MDA-MB-231 breast
[2] = tested on: SK-MEL-2 melanoma
[3] = tested on: UO-31 renal
[4] = tested on: SF-268 CNS
[5] = tested on: EKVX NSCLC
[6] = tested on: HCT-116 colon
[7] = tested on: DU-145 prostate
[8] = tested on: KM12 colon
[9] = tested on: HOP-62 NSCLC
[10] = tested on: SK-MEL-28 melanoma
[11] = tested on: NCI-H226 lung
[12] = tested on: IGROV1 ovarian
[13] = tested on: OVCAR-4 ovarian
[14] = tested on: A498 renal
[15] = tested on: TK-10 renal
[16] = tested on: HOP-92 NSCLC
[17] = tested on: K-562 leukemia
[18] = tested on: MCF7 breast
[19] = tested on: SN12C renal
[20] = tested on: MALME-3M melanoma
[21] = tested on: SW-620 colon
[22] = tested on: HT29 colon
[23] = tested on: COLO 205 colon
[24] = tested on: SF-295 CNS
[25] = tested on: MDA-N
[26] = tested on: SF-539 CNS
[27] = tested on: CAKI-1 renal
[28] = tested on: U251 CNS
[29] = tested on: OVCAR-3 ovarian
[30] = tested on: UACC-62 melanoma
[31] = tested on: HCT-15 colon
[32] = tested on: BT-549 breast
[33] = tested on: NCI/ADR-RES ovarian
[34] = tested on: RXF 393 renal
[35] = tested on: LOX IMVI melanoma
[36] = tested on: A549 NSCLC
[37] = tested on: PC-3 prostate
[38] = tested on: SNB-75 CNS
[39] = tested on: ACHN renal
[40] = tested on: UACC-257 melanoma
[41] = tested on: NCI-H460 lung
[42] = tested on: NCI-H23 lung
[43] = tested on: 786-0 renal
[44] = tested on: HS 578T breast
[45] = tested on: SNB-19 CNS
[46] = tested on: OVCAR-8 ovarian
[47] = tested on: SK-OV-3 ovarian
[48] = tested on: NCI-H522 lung
[49] = tested on: HCC-2998 colon
[50] = tested on: RPMI-8226 leukemia
[51] = tested on: M14 melanoma
[52] = tested on: OVCAR-5 ovarian
[53] = tested on: T-47D breast
[54] = tested on: SK-MEL-5 melanoma
[55] = tested on: MDA-MB-435
[56] = tested on: SR leukemia
[57] = tested on: CCRF-CEM leukemia
[58] = tested on: MOLT-4 leukemia

Q: For `COc1ccc(C(Nc2ccccn2)c2cc(C(C)(C)C)cc(C(C)(C)C)c2O)cc1` (stereo unspecified), which TGI [1] is on record?
A: > 100 µM

Q: And the TGI [2]?
A: 43.2 µM

Q: What about the TGI [3] of the same compound?
A: > 100 µM

Q: What about the TGI [4] of the same compound?
A: > 100 µM

Q: What about the TGI [5] of the same compound?
A: > 100 µM

Q: What about the TGI [6] of the same compound?
A: > 100 µM

Q: What about the TGI [7] of the same compound?
A: > 100 µM

Q: What about the TGI [8] of the same compound?
A: 63.8 µM

Q: And the TGI [9]?
A: 78.2 µM

Q: And the TGI [10]?
A: > 100 µM

Q: And the TGI [11]?
A: 47.9 µM

Q: What about the TGI [12] of the same compound?
A: > 100 µM

Q: What about the TGI [13] of the same compound?
A: > 100 µM

Q: And the TGI [14]?
A: > 100 µM

Q: And the TGI [15]?
A: > 100 µM

Q: What about the TGI [16] of the same compound?
A: > 100 µM

Q: What about the TGI [17] of the same compound?
A: > 100 µM

Q: What about the TGI [18] of the same compound?
A: > 100 µM

Q: What about the TGI [19] of the same compound?
A: > 100 µM

Q: And the TGI [20]?
A: 24.4 µM

Q: And the TGI [21]?
A: > 100 µM

Q: What about the TGI [22] of the same compound?
A: > 100 µM

Q: What about the TGI [23] of the same compound?
A: 50 µM

Q: What about the TGI [24] of the same compound?
A: 59.3 µM

Q: And the TGI [25]?
A: > 100 µM

Q: What about the TGI [26] of the same compound?
A: > 100 µM

Q: And the TGI [27]?
A: > 100 µM

Q: What about the TGI [28] of the same compound?
A: > 100 µM

Q: What about the TGI [29] of the same compound?
A: 43.6 µM

Q: What about the TGI [30] of the same compound?
A: 67.1 µM

Q: And the TGI [31]?
A: > 100 µM

Q: What about the TGI [32] of the same compound?
A: 56.8 µM

Q: And the TGI [33]?
A: > 100 µM

Q: What about the TGI [34] of the same compound?
A: 38.6 µM

Q: And the TGI [35]?
A: 35.8 µM

Q: What about the TGI [36] of the same compound?
A: > 100 µM

Q: And the TGI [37]?
A: > 100 µM

Q: What about the TGI [38] of the same compound?
A: 49.4 µM

Q: And the TGI [39]?
A: > 100 µM

Q: What about the TGI [40] of the same compound?
A: > 100 µM

Q: And the TGI [41]?
A: 55.7 µM

Q: What about the TGI [42] of the same compound?
A: 51.2 µM

Q: And the TGI [43]?
A: > 100 µM

Q: What about the TGI [44] of the same compound?
A: > 100 µM

Q: What about the TGI [45] of the same compound?
A: > 100 µM

Q: What about the TGI [46] of the same compound?
A: > 100 µM

Q: And the TGI [47]?
A: > 100 µM

Q: And the TGI [48]?
A: 17.7 µM

Q: What about the TGI [49] of the same compound?
A: 38.7 µM

Q: What about the TGI [50] of the same compound?
A: > 100 µM

Q: What about the TGI [51] of the same compound?
A: 54.9 µM

Q: And the TGI [52]?
A: > 100 µM

Q: And the TGI [53]?
A: 76.4 µM

Q: What about the TGI [54] of the same compound?
A: 31.3 µM

Q: What about the TGI [55] of the same compound?
A: 62.4 µM

Q: And the TGI [56]?
A: > 100 µM

Q: Which TGI [1] does the source give for `O=C(O)c1cc(Cl)cc(Cc2cc(Cl)cc(C(=O)O)c2O)c1O` here?
A: > 100 µM

Q: What about the TGI [2] of the same compound?
A: > 100 µM

Q: And the TGI [3]?
A: > 100 µM

Q: And the TGI [4]?
A: > 100 µM

Q: And the TGI [5]?
A: > 100 µM

Q: What about the TGI [6] of the same compound?
A: > 100 µM

Q: And the TGI [7]?
A: > 100 µM

Q: And the TGI [8]?
A: > 100 µM

Q: And the TGI [9]?
A: > 100 µM

Q: What about the TGI [10] of the same compound?
A: > 100 µM

Q: What about the TGI [12] of the same compound?
A: > 100 µM

Q: What about the TGI [13] of the same compound?
A: > 100 µM

Q: What about the TGI [14] of the same compound?
A: > 100 µM

Q: What about the TGI [15] of the same compound?
A: > 100 µM

Q: What about the TGI [16] of the same compound?
A: > 100 µM

Q: What about the TGI [17] of the same compound?
A: > 100 µM

Q: And the TGI [18]?
A: > 100 µM

Q: What about the TGI [19] of the same compound?
A: > 100 µM

Q: What about the TGI [20] of the same compound?
A: > 100 µM

Q: And the TGI [21]?
A: > 100 µM

Q: And the TGI [22]?
A: > 100 µM

Q: What about the TGI [23] of the same compound?
A: > 100 µM

Q: What about the TGI [24] of the same compound?
A: > 100 µM

Q: What about the TGI [25] of the same compound?
A: > 100 µM

Q: And the TGI [26]?
A: > 100 µM

Q: What about the TGI [27] of the same compound?
A: > 100 µM

Q: What about the TGI [28] of the same compound?
A: > 100 µM

Q: What about the TGI [29] of the same compound?
A: > 100 µM

Q: What about the TGI [30] of the same compound?
A: > 100 µM

Q: What about the TGI [57] of the same compound?
A: > 100 µM

Q: And the TGI [31]?
A: > 100 µM

Q: What about the TGI [32] of the same compound?
A: > 100 µM

Q: What about the TGI [33] of the same compound?
A: > 100 µM

Q: What about the TGI [34] of the same compound?
A: > 100 µM

Q: And the TGI [35]?
A: > 100 µM

Q: And the TGI [36]?
A: > 100 µM

Q: What about the TGI [37] of the same compound?
A: > 100 µM

Q: What about the TGI [38] of the same compound?
A: > 100 µM

Q: What about the TGI [39] of the same compound?
A: > 100 µM

Q: What about the TGI [41] of the same compound?
A: > 100 µM

Q: And the TGI [58]?
A: > 100 µM

Q: And the TGI [42]?
A: > 100 µM

Q: And the TGI [43]?
A: > 100 µM

Q: And the TGI [44]?
A: > 100 µM

Q: What about the TGI [45] of the same compound?
A: > 100 µM

Q: What about the TGI [46] of the same compound?
A: > 100 µM

Q: What about the TGI [47] of the same compound?
A: > 100 µM

Q: And the TGI [48]?
A: > 100 µM

Q: What about the TGI [50] of the same compound?
A: > 100 µM

Q: And the TGI [51]?
A: > 100 µM

Q: And the TGI [52]?
A: > 100 µM

Q: And the TGI [53]?
A: > 100 µM

Q: What about the TGI [54] of the same compound?
A: > 100 µM

Q: What about the TGI [55] of the same compound?
A: > 100 µM

Q: And the TGI [56]?
A: > 100 µM
